One assay has as its system DUX4. In words: High-content immunocytochemistry assay of endogenous DUX4 expression in differentiating primary FSHD myotubes. The assay is classed as cell-based, human. The conditions noted are these: for EC50: Homo sapiens, Myotube, read-out: half maximal effective concentration (EC50), DUX4 repression. An excerpt:
A quantitative assay readout was developed based on script-based image analysis. Cells were stained according to example 1, also using DAPI to detect myonuclei and an antibody against myosin heavy chain (MHC) to visualize the formation of myotubes. To analyse the images, an automated script was developed, enabling the detection of nuclei, myotube borders and DUX4 signals, with the script also detecting artefacts to reduce false positive signals. The script enabled multiple validated readouts including the number of DUX4 positive nuclei and nuclei clusters, the fusion index, myotube area, myotube width and myotube skeleton length (see FIG. 2). Additionally, the total nuclei count was included as a measure of cell loss or compound toxicity. The script was validated by evaluating endogenous DUX4 expression in the primary myotubes, and results were in line with literature values, with the number of DUX4 expressing nuclei being <0.5%.
A compound library containing approximately 5000 annotated compounds was screened in the high-content assay. For this purpose, primary myoblasts were seeded in 384 well plates after which the growth medium was replaced with differentiation medium. After 3 days of differentiation, cells were treated with library compounds (in duplicate on different screening plates) for 15 h, after which they were fixed and stained with antibodies against DUX4, antibodies against myosin heavy chain (MHC), and with DAPI (4′,6-diamidino-2-phenylindole). Script-based analysis provided readouts for DUX4 expression (count of DUX4-positive nuclei or DUX4 intensity) and for potential toxicity (fusion index and nuclei count). The majority of the approximately 200 hits was confirmed in an experiment using the same assay and 5 replicates. These compounds were selected for further concentration-response profiling.
The DUX4 repression of CK1 inhibitors was assayed following the protocol of Example 2, illustrated in FIG. 4A. […] Compounds were incubated with primary FSHD cells for 15 hours, as indicated by the arrow in FIG. 4A.

The target in another assay is CK1α (Homo sapiens, UniProt P48729). In words: CK1α inhibition IC50. It counts as biochemical. To be noted: Table 3; read-out: CK1 a IC50.
The target in a further assay is CK1δ (Homo sapiens, UniProt P48730). In words: CK1δ inhibition IC50. It counts as biochemical. To be noted: Table 3; read-out: CK1 d IC50.
Another assay concerns the target CK1ε (Homo sapiens, UniProt P49674). Description: CK1ε inhibition IC50. The assay is classed as biochemical. The conditions noted are these: Table 3; read-out: CK1 e IC50.
A further assay deals with p38α (Homo sapiens, UniProt Q16539). In words: p38α inhibition IC50. The assay is classed as biochemical. To be noted: Table 3; read-out: p38a IC50.
Where [1] appears, read: primary FSHD cells, compounds incubated 15 hours, Table 3.

Where two headings read alike, the source gives them in different places.

CK1α, sequence (P48729 whole entry): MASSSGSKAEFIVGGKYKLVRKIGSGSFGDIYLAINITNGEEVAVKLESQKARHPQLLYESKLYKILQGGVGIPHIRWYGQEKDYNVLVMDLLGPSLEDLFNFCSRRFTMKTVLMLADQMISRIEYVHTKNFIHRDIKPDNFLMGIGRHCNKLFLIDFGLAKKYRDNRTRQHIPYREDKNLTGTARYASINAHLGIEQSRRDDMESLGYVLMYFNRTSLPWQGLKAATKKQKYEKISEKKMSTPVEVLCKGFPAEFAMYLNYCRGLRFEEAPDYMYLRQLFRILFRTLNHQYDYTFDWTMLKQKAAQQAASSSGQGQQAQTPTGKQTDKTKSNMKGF
CK1ε, sequence (P49674 whole entry): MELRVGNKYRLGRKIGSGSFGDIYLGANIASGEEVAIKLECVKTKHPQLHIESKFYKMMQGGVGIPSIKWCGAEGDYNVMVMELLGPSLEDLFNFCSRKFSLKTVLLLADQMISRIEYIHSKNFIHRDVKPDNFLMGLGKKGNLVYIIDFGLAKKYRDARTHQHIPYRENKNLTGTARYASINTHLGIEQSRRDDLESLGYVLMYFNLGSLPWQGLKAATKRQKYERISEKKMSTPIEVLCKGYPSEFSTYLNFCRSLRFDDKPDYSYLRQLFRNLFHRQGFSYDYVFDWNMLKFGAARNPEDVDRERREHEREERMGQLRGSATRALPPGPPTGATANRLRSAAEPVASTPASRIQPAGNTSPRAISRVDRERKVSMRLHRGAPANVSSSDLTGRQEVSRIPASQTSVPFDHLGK
p38α, sequence (Q16539 whole entry): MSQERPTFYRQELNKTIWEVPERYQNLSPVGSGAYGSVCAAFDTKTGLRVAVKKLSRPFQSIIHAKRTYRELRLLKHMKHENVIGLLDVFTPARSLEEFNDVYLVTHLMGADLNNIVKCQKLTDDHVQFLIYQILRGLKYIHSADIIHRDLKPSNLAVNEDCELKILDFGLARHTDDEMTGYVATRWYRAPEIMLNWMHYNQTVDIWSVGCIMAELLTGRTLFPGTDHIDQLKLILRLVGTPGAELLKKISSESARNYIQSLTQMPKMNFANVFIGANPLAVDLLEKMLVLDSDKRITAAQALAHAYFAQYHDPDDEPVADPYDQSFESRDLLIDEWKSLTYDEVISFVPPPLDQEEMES
CK1δ, sequence (P48730 whole entry): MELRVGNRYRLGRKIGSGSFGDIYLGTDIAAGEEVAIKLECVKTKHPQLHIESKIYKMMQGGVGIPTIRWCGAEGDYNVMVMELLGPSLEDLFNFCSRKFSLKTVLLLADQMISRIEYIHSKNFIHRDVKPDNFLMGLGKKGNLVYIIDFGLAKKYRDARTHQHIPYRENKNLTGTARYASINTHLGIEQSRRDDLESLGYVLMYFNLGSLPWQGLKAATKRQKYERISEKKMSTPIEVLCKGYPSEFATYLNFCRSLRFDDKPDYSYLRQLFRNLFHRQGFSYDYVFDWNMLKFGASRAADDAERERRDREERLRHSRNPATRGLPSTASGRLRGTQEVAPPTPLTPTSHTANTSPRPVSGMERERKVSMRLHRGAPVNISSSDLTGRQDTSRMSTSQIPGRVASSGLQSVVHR

As to `Nc1nccc(-c2c(-c3ccc(F)cc3)ncn2C2CCCCC2)n1` [PF-670462, reference compound], the EC50 in the assay with DUX4 (setting [1]) was 430 nM.

Consider `Fc1ccc(-c2nc3ccc(N4CCNCC4)nn3c2-c2ccncc2)cc1` [Compound H], for which, in the assay on DUX4 (setting [1]), the EC50 fell in the range of 10 to 46 nM. The half-inhibitory concentration (IC50) (commonly the concentration at which inhibition is half-maximal) was 22 nM on CK1α, 16.5 nM on CK1δ, 9.41 nM at CK1ε and 14.8 nM on p38α.

With `Nc1nccc(-c2c(-c3ccc(F)cc3)ncn2C2CCN(Cc3ccon3)CC2)n1` [PF-5006739, reference compound], the EC50 in the assay on DUX4 (setting [1]) was 310 nM.

With `CN1CCN(c2ccc3nc(-c4ccc(F)cc4)c(-c4ccncc4)n3n2)CC1` [Compound B], the EC50 with DUX4 (setting [1]) came out at 2000 nM.

For the molecule `CNCc1cc(-c2cn(C)nc2-c2ccc(F)cc2)ccn1` [Compound I], the EC50 with DUX4 (15 h) was in the range of 3100 to 5500 nM. Moreover, the IC50 worked out at 1760 nM at CK1α, 57.7 nM on CK1δ, 89 nM at CK1ε and 3070 nM on p38α.

Regarding `Fc1cccc(-n2cnc3c(NCc4nc5ccc(F)c(F)c5[nH]4)nc(N4CCOCC4)nc32)c1` [SR-3029, reference compound], the EC50 with DUX4 (15 h) is 50 to 120 nM. Also, the IC50 on CK1α and on p38α was 1000 nM in each case.

`Fc1ccc(-c2nc(-c3c(F)cccc3F)[nH]c2-c2ccncc2)cc1` [Compound O]: the EC50 in the assay on DUX4 (setting [1]) came out at 710 nM.

For the molecule `CC1(C)CN(c2ccc3nc(-c4ccc(F)cc4)c(-c4ccncc4)n3n2)CCN1` [Compound A], the EC50 in the assay with DUX4 (setting [1]) fell in the range of 40 to 50 nM.

On to `COc1cc(OC)c2c(=O)[nH]c(-c3cc(C)c(OCCO)c(C)c3)nc2c1` [RVX-208, reference compound], for which the “effect on DUX4 expression” value in the assay on DUX4 (irrespective of treatment time (15 h or 72 h), not shown) is reported as “did not show any effect on DUX4 expression”.

Regarding `COCCN1Cc2nccc(-c3cn(C)nc3-c3ccc(F)cc3)c2C1=O` [Compound G], the EC50 in the assay on DUX4 (setting [1]) was in the range of 1700 to 4500 nM. Moreover, the IC50 at CK1α is 2590 nM; on CK1δ it was 41.8 nM; at CK1ε, 92.1 nM; at p38α, 712 nM.

For `CN1Cc2nccc(-c3cn(C)nc3-c3ccc(F)cc3)c2C1=O` [Compound E], the EC50 in the assay with DUX4 (15 h) lay in the range of 1900 to 3100 nM.

As for `Cn1cc(-c2ccnc3c2C(=O)N(C2CCOCC2)C3)c(-c2ccc(F)cc2)n1` [Compound F], the EC50 in the assay on DUX4 (setting [1]) was in the range of 1500 to 2600 nM.

Take `CNc1nccc(-c2c(-c3ccc(F)cc3)ncn2C2CCN(Cc3ccon3)CC2)n1` [Compound C]: the EC50 in the assay with DUX4 (setting [1]) lay within 1100 to 1400 nM.

The values above are taken from patent US20210177847A1, “Compounds for treatment of diseases related to DUX4 expression” (Facio Intellectual Property B.V., priority 2017, published 2021).
